Consider 3 compounds from patent US20260206760A1, “AZOLE COMPOUNDS FOR CONTROLLING AND COMBATING INVERTEBRATE PESTS” (FMC CORPORATION, priority 2022, published 2026).

Bounds are passed on as bounds.

Type in all cases: in vivo
For data set [1], the system named is diamondback moth (Plutella xylostella (L.)). The following applies: sprayed at 250 ppm; neonate larvae; assessed after 6 days; very good to excellent levels of control efficacy. On the procedure:
(§1) Test compounds were formulated using a solution containing 10% acetone, 90% water and 300 ppm Activator 90® non-ionic surfactant (Loveland Products, Loveland, Colorado, USA). The formulated compounds were applied in 1 mL of liquid through an atomizer nozzle positioned 1.27 cm (0.5 inches) above the top of each test unit. Test compounds were sprayed at the rates indicated, and each test was replicated three times.
For evaluating control of diamondback moth (Plutella xylostella (L.)) the test unit consisted of a small open container with a 12-14-day-old mustard plant inside. This was pre-infested with ~50 neonate larvae that were dispensed into the test unit via corn cob grits using an inoculator. The larvae moved onto the test plant after being dispensed into the test unit.
Test compounds were formulated and sprayed at 250 and/or 50 ppm. After spraying of the formulated test compound, each test unit was allowed to dry for 1 hour and then a black, screened cap was placed on top. The test units were held for 6 days in a growth chamber at 25° C. and 70% relative humidity. Plant feeding damage was then visually assessed based on foliage consumed, and larvae were assessed for mortality.

Data set [2] deals with cotton melon aphid (Aphis gossypii (Glover)). Nature of the data set: whole plant or invertebrate. To be noted: 144 h, assessed after 6 days; for mortality at 50 ppm: sprayed at 50 ppm. How it is done:
as §1
For evaluating control of cotton melon aphid (Aphis gossypii (Glover)) through contact and/or systemic means, the test unit consisted of a small open container with a 5-day-old okra plant inside. This was pre-infested with 30-40 insects on a piece of leaf according to the cut-leaf method, and the soil of the test unit was covered with a layer of sand.
Test compounds were formulated and sprayed at 250 and/or 50 ppm. After spraying, the test units were maintained in a growth chamber for 6 days at 19° C. and 70% relative humidity. Each test unit was then visually assessed for insect mortality.

Data set [3] deals with green peach aphid (Myzus persicae (Sulzer)). Nature of the data set: Test B: control of green peach aphid, spray on radish plant, visual mortality. To be noted: 144 h, assessed after 6 days; for mortality at 50 ppm: sprayed at 50 ppm. On the procedure: as §1
For evaluating control of green peach aphid (Myzus persicae (Sulzer)) through contact and/or systemic means, the test unit consisted of a small open container with a 12-15-day-old radish plant inside. This was pre-infested by placing on a leaf of the test plant 30-40 aphids on a piece of leaf excised from a culture plant (cut-leaf method). The aphids moved onto the test plant as the leaf piece desiccated. After pre-infestation, the soil of the test unit was covered with a layer of sand.
Test compounds were formulated and sprayed at 250 and/or 50 ppm. After spraying of the formulated test compound, each test unit was allowed to dry for 1 hour and then a black, screened cap was placed on top. The test units were held for 6 days in a growth chamber at 19-21° C. and 50-70% relative humidity. Each test unit was then visually assessed for insect mortality.

Data set [4] relates to corn planthopper (Peregrinus maidis (Ashmead)). Nature of the data set: whole plant or invertebrate. To be noted: 144 h, sprayed at 50 ppm, nymphs, assessed after 6 days. On the procedure: as §1
For evaluating control of corn planthopper (Peregrinus maidis (Ashmead)) through contact and/or systemic means, the test unit consisted of a small open container with a 3-4-day-old corn (maize) plant inside. White sand was added to the top of the soil prior to application of the test compound.
Test compounds were formulated and sprayed at 250 and/or 50 ppm and/or 10 ppm. After spraying of the formulated test compound, the test units were allowed to dry for 1 h before they were post-infested with ~15-20 nymphs (18-to-21-day-old). A black, screened cap was placed on the top of each test unit, and the test units were held for 6 days in a growth chamber at 22-24° C. and 50-70% relative humidity. Each test unit was then visually assessed for insect mortality.

Data set [5] deals with sweetpotato whitefly (Bemisia tabaci (Gennadius)). Nature of the data set: whole plant or invertebrate. To be noted: 312 h, sprayed at 50 ppm, eggs on cotton leaf, assessed after 13 days. How it is done:
as §1
For evaluating control of the sweetpotato whitefly (Bemisia tabaci (Gennadius)) through contact and/or systemic means, the test unit consisted of a small open container with a 12-14-day-old cotton plant inside. Prior to the spray application, both cotyledons were removed from the plant, leaving one true leaf for the assay. Adult whiteflies were allowed to lay eggs on the plant and then were removed from the test unit. Cotton plants infested with at least 15 eggs were submitted to the test for spraying.
Test compounds were formulated and sprayed at 50 and/or 10 ppm. After spraying, the test units were allowed to dry for 1 hour. The cylinders were then removed, and the units were taken to a growth chamber and held for 13 days at 28° C. and 50-70% relative humidity. Each test unit was then visually assessed for insect mortality.

In the case of `Fc1cncc(-n2ccnn2)c1C1CC1c1ccc(C(F)(F)F)cc1` (stereo not shown) [Compound 3, 3-fluoro-5-(triazol-1-yl)-4-[2-[4-(trifluoromethyl)phenyl]cyclopropyl]pyridine], the “control efficacy (feeding damage and/or mortality)” value in data set [1] is 40% or less feeding damage and/or 100% mortality.

Take `FC(F)(F)Oc1ccc(/C=C/c2ccncc2-n2nccn2)cc1` [Compound 1, 3-(1,2,3-triazol-2-yl)-4-[(1E)-2-[4-(trifluoromethoxy)phenyl]ethenyl]pyridine]: the mortality at 50 ppm in data set [2], in data set [3] and in data set [4] was at least 80% throughout.

Take `Fc1cncc(-n2nccn2)c1C1CC1c1ccc(C(F)(F)F)cc1` (stereo not shown) [Compound 4, 3-fluoro-5-(triazol-2-yl)-4-[2-[4-(trifluoromethyl)phenyl]cyclopropyl]pyridine]: the mortality at 50 ppm is at least 80% in data set [2], at least 80% in data set [3] and at least 70% in data set [5]. Moreover, the mortality at 250 ppm in data set [2] (sprayed at 250 ppm) and in data set [3] (sprayed at 250 ppm) was at least 80% in each case. Besides, the “control efficacy (feeding damage and/or mortality)” value in data set [1] was 40% or less feeding damage and/or 100% mortality.

As usually defined, the mortality is the percentage killed. A high value points to fewer survivors.
